Experimental findings from PubChem BioAssay AID1996 are described below.

≈ marks a conversion by molar mass, not a printed value. Bounds are passed on as bounds.

For this series the following is noted: buffer; pH 7.4; 200.0 µM.
As a reminder, the kinetic solubility is the concentration staying in solution when a stock, usually in DMSO, is diluted into the medium. As to `COc1ccc(/C=C/C(=O)N2CCN(C)CC2)cc1OC`, the solubility (kinetic) is greater than 43.6 µg/mL. For `CN(Cc1nc(-c2ccccc2)no1)C1CCOCC1`, the kinetic solubility was 36.7 µg/mL (≈ 134 µM). As for `CCOC(=O)c1nsnc1NCCCl`, the figure is 22.7 µg/mL (≈ 96.3 µM). For `O=C(NCc1ccc(F)cc1)Nc1ccccc1` the value was 9.3 µg/mL (≈ 38.1 µM). For `CC(=O)c1c[nH]c(C(=O)NCc2cccc(C(F)(F)F)c2)c1` the value was 2.2 µg/mL (≈ 7.09 µM).

As for `Cc1noc(C)c1C(=O)OCC(=O)N1CCc2ccccc21`, the kinetic solubility is 4.8 µg/mL (≈ 16 µM).

The compound `CC1CCN(C(=O)COC(=O)CCc2c[nH]c3ccccc23)CC1` came in with a kinetic solubility of 9 µg/mL (≈ 27.4 µM). `Fc1ccccc1CN1CCCC(NC2CCC2)C1` (stereo not given): the solubility (kinetic) turned out to be 36.9 µg/mL (≈ 141 µM). `COc1cc2ncnc(NCc3ccc(F)cc3)c2cc1OC` had a kinetic solubility greater than 47 µg/mL. As for `COc1ccccc1C(=O)COC(=O)C(NC(=O)Cc1ccccc1)C(C)C` (stereo not given), the figure is 56.5 µg/mL (≈ 147 µM); as for `CCC(=O)c1ccc(OCC(=O)NCCc2ccccn2)cc1`, greater than 46.9 µg/mL; as for `CCn1c(=O)c([N+](=O)[O-])c(Cl)c2ccccc21`, 3.3 µg/mL (≈ 13.1 µM). For `COC(=O)c1ccc(Oc2nc(NC(C)C)nc(NC(C)C)n2)cc1` the value was 1.4 µg/mL (≈ 4.05 µM); for `Fc1ccc(-n2c(-c3ccco3)n[nH]c2=S)cc1`, greater than 39.2 µg/mL; for `CCOc1ccc(-c2nc(CCl)cs2)cc1.Cl`, 8.5 µg/mL. As for `O=C(CSc1ccccn1)NC1CCCC1`, the figure is greater than 35.4 µg/mL; as for `COc1ccc(CNC(=O)c2nccnc2CO)cc1`, greater than 41 µg/mL; as for `O=C(Nc1ccc(Cl)c(S(=O)(=O)N2CCOCC2)c1)c1ccc2c(c1)OCO2`, 2.6 µg/mL (≈ 6.12 µM).

The compound `CCNc1nc(NC(C)C)nc(N(C)C#N)n1` gave a solubility (kinetic) greater than 35.3 µg/mL. For `O=C(c1ccccc1)N1CCCC(C(=O)N2CCCCC2)C1` (stereo not given) the value was greater than 45.1 µg/mL; for `Cc1cccc(C(=O)N=c2sccn2C)c1[N+](=O)[O-]`, 17.3 µg/mL (≈ 62.4 µM); for `CCC(=O)c1c[nH]c(C(=O)NCc2ccccc2OC)c1`, 2.8 µg/mL (≈ 9.78 µM). `CNC(=S)NNC(=O)c1cccc(N(C)C)c1` showed a solubility (kinetic) greater than 37.9 µg/mL. For the compound `COC(=O)C1=C(N)Oc2cc(C)[nH]c(=O)c2C1c1ccc(Cl)cc1` (stereo not given), the solubility (kinetic) is 1.7 µg/mL (≈ 4.9 µM). In turn, `O=C(CN1CCCCCC1)Nc1ccccc1OC(F)F` displayed a solubility (kinetic) of 44.5 µg/mL (≈ 149 µM). As for `CCc1sc(C(=O)N2CCN(C(=O)c3ccccc3)CC2)cc1C`, the figure is greater than 51.4 µg/mL; as for `Cc1ccc(C(=O)NCCN2CCOCC2)cc1C`, 38.1 µg/mL (≈ 145 µM). For `O=C(COC(=O)c1ccc(Cl)cc1[N+](=O)[O-])NC(=O)c1ccccc1` the value was 4.8 µg/mL (≈ 13.2 µM); for `O=C(Nc1ccc(S(=O)(=O)Nc2ncccn2)cc1)c1ccccc1`, greater than 53.2 µg/mL. Take `Cc1ccn2cc(-c3cccc([N+](=O)[O-])c3)nc2c1`: the solubility (kinetic) was found to be 5.7 µg/mL (≈ 22.5 µM). In turn, `Cc1ccc(OCCSc2nc3ccccc3n2CC(=O)O)cc1` gave a kinetic solubility greater than 51.4 µg/mL. In turn, `Oc1ccc(-c2nccc(-c3ccc(F)cc3)n2)cc1` registered a kinetic solubility of 2.1 µg/mL (≈ 7.89 µM). For `Cc1ccccc1OCc1nc(C#N)c(N2CCCC2)o1` the value was 10.9 µg/mL (≈ 38.5 µM); for `COC(=O)c1ccc(S(=O)(=O)NCCc2ccccc2OC)n1C`, 23 µg/mL (≈ 65.3 µM); for `CC(C)C(NC(=O)c1ccc(Cl)cc1)C(=O)NCC1CCCO1` (stereo not given), greater than 50.8 µg/mL.

As to `COc1ccc(-c2nc(C)ncc2-c2ccccc2)c(O)c1`, the solubility (kinetic) amounted to 6.4 µg/mL (≈ 21.9 µM). Consider `COc1ccc(C(=O)O)cc1S(=O)(=O)NCc1ccccn1`, for which the solubility (kinetic) was greater than 48.4 µg/mL. For `CCN1CCN(C(=O)c2[nH]c3ccc(OC)cc3c2C)CC1` the value was greater than 45.2 µg/mL; for `COc1ccc(-c2nc3cc([N+](=O)[O-])ccc3o2)cc1OC`, less than 0.3 µg/mL. The compound `COc1ccc(NS(=O)(=O)c2ccc3c(c2)CCO3)cc1` gave a kinetic solubility of 45 µg/mL (≈ 147 µM). For the compound `Br.COC(=O)c1ccc(CN2CCSC2=N)cc1`, the solubility (kinetic) was 49.6 µg/mL. As for `CCCC(=O)Nc1c(-c2cccc(C)c2)c(=O)c2ccccc2n1C`, the figure is 13.1 µg/mL (≈ 39.2 µM). As for `Cc1ccc(NC(=O)CC(=O)Nc2ccc(C)c(C)c2)cc1C`, the figure is less than 0.3 µg/mL. `CSc1ncc(Cl)c(C(=O)Nc2cccnc2)n1` gave a solubility (kinetic) greater than 42.1 µg/mL. In turn, `O=S(=O)([O-])CCC[N+]1(CC#Cc2ccccc2)CCCCC1` showed a solubility (kinetic) greater than 48.2 µg/mL. As for `Cc1cc(=S)c2ccccc2[nH]1`, the figure is 20.5 µg/mL (≈ 117 µM). As for `O=C(CNC(=O)c1ccco1)NCC(=O)OCc1ccccc1Cl`, the figure is 42.5 µg/mL (≈ 121 µM). Compound `CCOc1ccc(C(=O)NCC(=O)N2CCCCCCC2)cc1` yielded a solubility (kinetic) greater than 47.8 µg/mL.

`COc1ccccc1CC(=O)Nc1ccon1` yielded a kinetic solubility greater than 34.8 µg/mL.

`O=C(C1CC(=O)N(c2ccc(Cl)cc2)C1)N1CCOCC1` (stereo not given) came in with a solubility (kinetic) of 40 µg/mL (≈ 130 µM). The compound `Cc1ccc(S(=O)(=O)N2CCCC2c2cccnc2)cc1` (stereo not given) registered a kinetic solubility greater than 45.4 µg/mL. On to `O=S(=O)(c1ccc2oc(=S)[nH]c2c1)N1CCOCC1`, for which the solubility (kinetic) was greater than 45.1 µg/mL. As for `O=c1[nH]c2ccccc2nc1NCc1ccccc1`, the figure is 3.9 µg/mL (≈ 15.5 µM); as for `Cc1ccc(Oc2ncccc2C(=O)NCC(=O)O)cc1`, 42.7 µg/mL (≈ 149 µM). As for `CCOC(=O)c1c(/N=C/c2cccc([N+](=O)[O-])c2O)sc2c1CCC2`, the figure is 49.9 µg/mL (≈ 138 µM). For `CCOc1ccc(N2C(=O)CNC2=S)cc1` the value was greater than 35.4 µg/mL; for `O=C(O)c1cccc(NC2=Nc3cccc4cccc2c34)c1`, 36.7 µg/mL (≈ 127 µM). `O=C(CN1C(=O)C(=O)N(C2CCCC2)C1=O)Nc1ccccc1OC(F)F` registered a solubility (kinetic) greater than 57.2 µg/mL. For `Cc1c(C)n(CCCN(C)C)c2ncnc(NC3CCCCC3)c12` the value was 46.9 µg/mL (≈ 142 µM); for `CC1CN(C(=O)COC(=O)[C@@H](NC(=O)c2ccccc2Cl)C(C)C)CC(C)O1` (stereo not given in full), 58.5 µg/mL (≈ 142 µM). For `CCCNC(=O)c1ccc(COc2ccc(C(C)(C)C)cc2)o1` the value was 10.9 µg/mL (≈ 34.6 µM); for `Nc1cc(C(F)(F)F)ccc1OCC1CCCO1` (stereo not given), 32.8 µg/mL (≈ 126 µM); for `Cc1ccc(S(=O)(=O)N(C)c2ccc(OC(=O)COc3ccccc3)cc2)cc1`, 18.7 µg/mL (≈ 45.4 µM). `CCC(C)Nc1nc(-c2ccccn2)nc2ccccc12` (stereo not given) returned a solubility (kinetic) greater than 41.8 µg/mL. For `c1cnc(N2CCN(c3ccc4ccccc4n3)CC2)nc1` the value was 1.3 µg/mL (≈ 4.46 µM).

`O=[N+]([O-])c1ccc(C(O)C23CN4CN(CN(C4)C2)C3)cc1` (stereo not given): the solubility (kinetic) came to 34.8 µg/mL (≈ 120 µM). In turn, `COc1ccccc1NC(=O)c1sc(Cl)nc1C` showed a solubility (kinetic) of 36.8 µg/mL (≈ 130 µM). Regarding `N=c1c2ccccc2nc2n1CCCCCCCCCCC2`, the kinetic solubility came out at 34.6 µg/mL (≈ 116 µM). For `CC(Sc1ncccn1)C(=O)Nc1ccc2c(c1)OCO2` (stereo not given), the kinetic solubility was found to be 45 µg/mL (≈ 148 µM).

On to `Cc1ccc([N+](=O)[O-])c(OCCN2C(=O)NC(C)(C)C2=O)c1`, for which the solubility (kinetic) is greater than 46.1 µg/mL.

As for `COc1ccc(NC(=O)COC(=O)CCc2ccc(S(=O)(=O)N3CCOCC3)cc2)cc1Cl`, the solubility (kinetic) was 19.6 µg/mL (≈ 39.4 µM). Compound `Cc1ccsc1C(=O)OCC(=O)NCc1ccco1` registered a solubility (kinetic) of 41.1 µg/mL (≈ 147 µM). As for `CCOC(=O)CSc1nc(-c2ccccc2)nc2ccc(C)cc12`, the figure is less than 0.4 µg/mL.

The compound `COC(=O)c1[nH]c2cc(C)ccc2c1NC(=O)CN1CCOCC1` yielded a solubility (kinetic) greater than 49.7 µg/mL. As for `NC(=O)c1ccsc1NC(=O)CCc1ccccc1`, the figure is 37.4 µg/mL (≈ 136 µM).
